Data as given in article PMC2700827 (Journal of the American Chemical Society, 2008).
Where two headings read alike, the source gives them in different places.

Columns and labels:
[1] = hydrogen bond acceptor; cited from earlier work
[2] = phenol pKa given in Figure 5 legend, source not given

Structure (SMILES)	pKa [1]	pKa [2]
O=[N+]([O-])c1cc[n+]([O-])cc1 [4-nitropyridine-N-oxide]	−1.7	
Oc1c(F)cc(F)cc1F [2,4,6-F3-phenol]		7.2
